Results from patent publication US9422297B2, “Tricyclic compounds having cytostatic and/or cytotoxic activity and methods of use thereof” (Duquesne University of the Holy Ghost, priority 2007, dated 2016).

Experiments:
Assay type in all cases: cell-based
RXF 399 = assay: NCI In-Vitro Testing, Renal Cancer
HS 576T = assay: NCI In-Vitro Testing, Breast Cancer
KM12 = assay: NCI In-Vitro Testing, Colon Cancer
UACC-62 = assay: NCI In-Vitro Testing, Melanoma
EKVX = assay: NCI In-Vitro Testing, Non-Small Cell Lung Cancer
SK-MEL-2 = assay: NCI In-Vitro Testing, Melanoma
U251 = assay: NCI In-Vitro Testing, CNS Cancer
OVCAR-5 = assay: NCI In-Vitro Testing, Ovarian Cancer
SK-OV-3 = assay: NCI In-Vitro Testing, Ovarian Cancer
TK-10 = assay: NCI In-Vitro Testing, Renal Cancer
MCF7 = assay: NCI In-Vitro Testing, Breast Cancer
NCWADR-RES = assay: NCI In-Vitro Testing, Breast Cancer
ACHN = assay: NCI In-Vitro Testing, Renal Cancer
CAKI-1 = assay: NCI In-Vitro Testing, Renal Cancer
A498 = assay: NCI In-Vitro Testing, Renal Cancer
M14 = assay: NCI In-Vitro Testing, Melanoma
SF-258 = assay: NCI In-Vitro Testing, CNS Cancer
MDA-MB-231/ATCC = assay: NCI In-Vitro Testing, Breast Cancer

Nc1nc2c(c(Nc3ccc(Cl)cc3)n1)-c1ccccc1C2 [AAG145-136]
GI50 (RXF 399): 1.20E−5 Molar
LC50 (RXF 399): >1.00E−4 Molar
TGI (RXF 399): 6.26E−5 Molar
Percent Growth (RXF 399; Log10 Concentration −4.0 Molar): −14%
Percent Growth (RXF 399; Log10 Concentration −5.0 Molar): 56%
Percent Growth (RXF 399; Log10 Concentration −6.0 Molar): 91%
Percent Growth (RXF 399; Log10 Concentration −7.0 Molar): 107%
Percent Growth (RXF 399; Log10 Concentration −8.0 Molar): 108%
GI50 (HS 576T): 2.22E−6 Molar
LC50 (HS 576T): >1.00E−4 Molar
TGI (HS 576T): 2.94E−5 Molar
Percent Growth (HS 576T; Log10 Concentration −4.0 Molar): −13%
Percent Growth (HS 576T; Log10 Concentration −5.0 Molar): 11%
Percent Growth (HS 576T; Log10 Concentration −6.0 Molar): 71%
Percent Growth (HS 576T; Log10 Concentration −7.0 Molar): 97%
Percent Growth (HS 576T; Log10 Concentration −8.0 Molar): 104%
GI50 (KM12): 3.30E−7 Molar
LC50 (KM12): >1.00E−4 Molar
TGI (KM12): >1.00E−4 Molar
Percent Growth (KM12; Log10 Concentration −4.0 Molar): 5%
Percent Growth (KM12; Log10 Concentration −5.0 Molar): 7%
Percent Growth (KM12; Log10 Concentration −6.0 Molar): 25%
Percent Growth (KM12; Log10 Concentration −7.0 Molar): 77%
Percent Growth (KM12; Log10 Concentration −8.0 Molar): 98%
GI50 (UACC-62): 6.41E−7 Molar
LC50 (UACC-62): >1.00E−4 Molar
TGI (UACC-62): >1.00E−4 Molar
Percent Growth (UACC-62; Log10 Concentration −4.0 Molar): 32%
Percent Growth (UACC-62; Log10 Concentration −5.0 Molar): 27%
Percent Growth (UACC-62; Log10 Concentration −6.0 Molar): 38%
Percent Growth (UACC-62; Log10 Concentration −7.0 Molar): 99%
Percent Growth (UACC-62; Log10 Concentration −8.0 Molar): 99%
GI50 (EKVX): 2.71E−8 Molar
LC50 (EKVX): >1.00E−4 Molar
TGI (EKVX): >1.00E−4 Molar
Percent Growth (EKVX; Log10 Concentration −4.0 Molar): 4%
Percent Growth (EKVX; Log10 Concentration −5.0 Molar): 26%
Percent Growth (EKVX; Log10 Concentration −6.0 Molar): 68%
Percent Growth (EKVX; Log10 Concentration −7.0 Molar): 68%
Percent Growth (EKVX; Log10 Concentration −8.0 Molar): 101%
GI50 (SK-MEL-2): 5.58E−7 Molar
LC50 (SK-MEL-2): >1.00E−4 Molar
TGI (SK-MEL-2): >1.00E−4 Molar
Percent Growth (SK-MEL-2; Log10 Concentration −4.0 Molar): 16%
Percent Growth (SK-MEL-2; Log10 Concentration −5.0 Molar): 27%
Percent Growth (SK-MEL-2; Log10 Concentration −6.0 Molar): 35%
Percent Growth (SK-MEL-2; Log10 Concentration −7.0 Molar): 95%
Percent Growth (SK-MEL-2; Log10 Concentration −8.0 Molar): 98%
GI50 (U251): 1.84E−7 Molar
LC50 (U251): >1.00E−4 Molar
TGI (U251): 5.66E−5 Molar
Percent Growth (U251; Log10 Concentration −4.0 Molar): −6%
Percent Growth (U251; Log10 Concentration −5.0 Molar): 19%
Percent Growth (U251; Log10 Concentration −6.0 Molar): 29%
Percent Growth (U251; Log10 Concentration −7.0 Molar): 53%
Percent Growth (U251; Log10 Concentration −8.0 Molar): 98%
LC50 (OVCAR-5): >1.00E−4 Molar
TGI (OVCAR-5): >1.00E−4 Molar
Percent Growth (OVCAR-5; Log10 Concentration −4.0 Molar): 58%
Percent Growth (OVCAR-5; Log10 Concentration −5.0 Molar): 47%
Percent Growth (OVCAR-5; Log10 Concentration −6.0 Molar): 56%
Percent Growth (OVCAR-5; Log10 Concentration −7.0 Molar): 77%
Percent Growth (OVCAR-5; Log10 Concentration −8.0 Molar): 96%
GI50 (SK-OV-3): 2.09E−6 Molar
LC50 (SK-OV-3): >1.00E−4 Molar
TGI (SK-OV-3): >1.00E−4 Molar
Percent Growth (SK-OV-3; Log10 Concentration −4.0 Molar): 16%
Percent Growth (SK-OV-3; Log10 Concentration −5.0 Molar): 36%
Percent Growth (SK-OV-3; Log10 Concentration −6.0 Molar): 57%
Percent Growth (SK-OV-3; Log10 Concentration −7.0 Molar): 97%
Percent Growth (SK-OV-3; Log10 Concentration −8.0 Molar): 106%
GI50 (TK-10): 2.15E−6 Molar
LC50 (TK-10): >1.00E−4 Molar
TGI (TK-10): >1.00E−4 Molar
Percent Growth (TK-10; Log10 Concentration −4.0 Molar): 27%
Percent Growth (TK-10; Log10 Concentration −5.0 Molar): 34%
Percent Growth (TK-10; Log10 Concentration −6.0 Molar): 58%
Percent Growth (TK-10; Log10 Concentration −7.0 Molar): 113%
Percent Growth (TK-10; Log10 Concentration −8.0 Molar): 110%
GI50 (MCF7): 7.34E−8 Molar
LC50 (MCF7): >1.00E−4 Molar
TGI (MCF7): 1.41E−5 Molar
Percent Growth (MCF7; Log10 Concentration −4.0 Molar): −26%
Percent Growth (MCF7; Log10 Concentration −5.0 Molar): 5%
Percent Growth (MCF7; Log10 Concentration −6.0 Molar): 17%
Percent Growth (MCF7; Log10 Concentration −7.0 Molar): 45%
Percent Growth (MCF7; Log10 Concentration −8.0 Molar): 63%
GI50 (NCWADR-RES): 7.87E−7 Molar
LC50 (NCWADR-RES): >1.00E−4 Molar
TGI (NCWADR-RES): >1.00E−4 Molar
Percent Growth (NCWADR-RES; Log10 Concentration −4.0 Molar): 24%
Percent Growth (NCWADR-RES; Log10 Concentration −5.0 Molar): 29%
Percent Growth (NCWADR-RES; Log10 Concentration −6.0 Molar): 44%
Percent Growth (NCWADR-RES; Log10 Concentration −7.0 Molar): 100%
Percent Growth (NCWADR-RES; Log10 Concentration −8.0 Molar): 100%
GI50 (ACHN): 3.42E−7 Molar
LC50 (ACHN): >1.00E−4 Molar
TGI (ACHN): 1.41E−5 Molar
Percent Growth (ACHN; Log10 Concentration −4.0 Molar): −22%
Percent Growth (ACHN; Log10 Concentration −5.0 Molar): 4%
Percent Growth (ACHN; Log10 Concentration −6.0 Molar): 21%
Percent Growth (ACHN; Log10 Concentration −7.0 Molar): 83%
Percent Growth (ACHN; Log10 Concentration −8.0 Molar): 89%
GI50 (CAKI-1): 1.08E−6 Molar
LC50 (CAKI-1): >1.00E−4 Molar
TGI (CAKI-1): >1.00E−4 Molar
Percent Growth (CAKI-1; Log10 Concentration −4.0 Molar): 15%
Percent Growth (CAKI-1; Log10 Concentration −5.0 Molar): 25%
Percent Growth (CAKI-1; Log10 Concentration −6.0 Molar): 51%
Percent Growth (CAKI-1; Log10 Concentration −7.0 Molar): 97%
Percent Growth (CAKI-1; Log10 Concentration −8.0 Molar): 105%
GI50 (A498): 2.49E−6 Molar
LC50 (A498): >1.00E−4 Molar
TGI (A498): 2.85E−5 Molar
Percent Growth (A498; Log10 Concentration −4.0 Molar): −17%
Percent Growth (A498; Log10 Concentration −5.0 Molar): 14%
Percent Growth (A498; Log10 Concentration −6.0 Molar): 74%
Percent Growth (A498; Log10 Concentration −7.0 Molar): 91%
Percent Growth (A498; Log10 Concentration −8.0 Molar): 101%
GI50 (M14): 4.31E−7 Molar
LC50 (M14): >1.00E−4 Molar
TGI (M14): >1.00E−4 Molar
Percent Growth (M14; Log10 Concentration −4.0 Molar): 34%
Percent Growth (M14; Log10 Concentration −5.0 Molar): 21%
Percent Growth (M14; Log10 Concentration −6.0 Molar): 31%
Percent Growth (M14; Log10 Concentration −7.0 Molar): 84%
Percent Growth (M14; Log10 Concentration −8.0 Molar): 102%
GI50 (SF-258): 8.62E−8 Molar
LC50 (SF-258): >1.00E−4 Molar
TGI (SF-258): >1.00E−4 Molar
Percent Growth (SF-258; Log10 Concentration −4.0 Molar): 21%
Percent Growth (SF-258; Log10 Concentration −5.0 Molar): 19%
Percent Growth (SF-258; Log10 Concentration −6.0 Molar): 27%
Percent Growth (SF-258; Log10 Concentration −7.0 Molar): 45%
Percent Growth (SF-258; Log10 Concentration −8.0 Molar): 104%
GI50 (MDA-MB-231/ATCC): 6.41E−7 Molar
LC50 (MDA-MB-231/ATCC): >1.00E−4 Molar
TGI (MDA-MB-231/ATCC): >1.00E−4 Molar
Percent Growth (MDA-MB-231/ATCC; Log10 Concentration −4.0 Molar): 30%
Percent Growth (MDA-MB-231/ATCC; Log10 Concentration −5.0 Molar): 29%
Percent Growth (MDA-MB-231/ATCC; Log10 Concentration −6.0 Molar): 45%
Percent Growth (MDA-MB-231/ATCC; Log10 Concentration −7.0 Molar): 70%
Percent Growth (MDA-MB-231/ATCC; Log10 Concentration −8.0 Molar): 92%
